Assay results from US20260335323A1, “CHIMERIC MOLECULE” (UCL Business Ltd, priority 2023, published 2026).

What was measured:
Format in all cases: cell-based, human
c-MYC controlled genes = assay: RT-qPCR of c-MYC controlled genes in CAL51 cells; details: 100 nM, 72 hours, vs (+)-JQ1 at equivalent concentration and duration
Method: FIG. 11. RT-qPCR quantification of expression of c-MYC controlled genes in CAL51 triple negative breast cancer cell line treated with DMSO, 100 nM (+)-JQ1 or 100 nM NZ-147 for 72 hours. […] MDM2 (A) and CCNE (B) are controlled by cMYC in oncogenic settings, PAICS (C) is a putative target of c-MYC, and eIF4E (D) is a known target of cMYC. n=3, *p<0.05, ** p<0.01, *** p<0.001.
RNA was extracted with the Qiagen RNeasy Mini kit following manufacturers protocol. RT-qPCR SYBR assay was carried out with Mesa Blue following manufacturers instructions, 80 ng RNA per well, experimental triplicates, BioRad CTX Connect qPCR machine. RNA levels were normalized to GAPDH. Experiments were done in biological triplicate. The primers used were as follows:
The levels of c-MYC controlled genes (determined using RT-qPCR) in CAL51 triple negative breast cancer cell line after treatment with DMSO, 100 nM (+)-JQ1 or 100 nM NZ-147 for 72 hours is shown in FIG. 11. In particular MDM2 (FIG. 11A) and CCNE (FIG. 11B) are controlled by cMYC in oncogenic settings, PAICS (FIG. 11C) is a putative target of c-MYC, and elF4E (FIG. 11D) is a known target of c-MYC.

c-MYC = assay: Western blot, c-MYC levels in CAL51 cells; details: 100 nM, 72 hours
Method: All treatments with (+)-JQ1, NZ-147 or NZ-175 were performed at 100 nM concentration over 72 hours.
Cells were homogenised in protein lysis buffer consisting of 0.1 M Tris pH 8.0, 0.1 M NaCl, 5% glycerol, IGEPAL® CA-630 (#18896. Sigma-Aldrich) and 5 mM EDTA, 0.1 M N-ethyl maleimide (ThermoFisher, #23030) and protease inhibitor (Cell Signalling Technologies, #5871). Protein concentrations were determined using the BCA assay to ensure equal loading. […] The membranes were immunoblotted with primary antibodies, overnight at 4° C. […]
Membranes were then incubated with horseradish peroxidase (HRP)-conjugated secondary antibodies (Rabbit #7074 and Mouse #7076) purchased from Cell Signalling Technologies for 1 hour and the HRP signal was detected using EZ-ECL Enhanced Chemiluminescence Detection Kit for HRP (#20-500-500, Sartorius), and imaged with an Alliance Q9 Advanced (UVITec). […]
We generated a BRD4-ULKTAC (NZ-147) by conjugating (+)-JQ1 (BRD4-targeting moiety) to NZ-60 via a PEG linker (FIG. 8A). CAL51 cells (a triple negative breast cancer cell line) were treated with DMSO, (+)-JQ1 or NZ-147 at 100 nM for 72 hours then lysed and analysed by Western blot (FIG. 8B). […]

A549 cells = assay: Cell viability assay (CellTiter Glo), A549; details: A549, increasing concentrations
Method: A549 and H1299 cells were seeded in OptiPlate-384 well plates and treated with increasing concentrations of (+)-JQ1 or NZ-147 from 0 μM to 10 µM in Example 8 and with increasing concentrations of NZ-175 from 0 µM to 10 µM in Example 9. Cells were treated for 120 h before using the luciferase based CellTiter Glo assay (Promega) to measure cell viability.
Cell viability assay was performed in A549 and H1299 cells, which were treated with different concentrations of (+)-JQ1 or NZ-147 at 100 nM for 72 hours (FIG. 10B).
Cell viability assay was performed in A549 and H1299 cells, which were treated with different concentrations of NZ-147 at 100 nM for 72 hours (FIG. 16B).

Cc1sc2c(c1C)C(c1ccc(Cl)cc1)=N[C@@H](CC(=O)NCCOCCOCCOCCn1cc(COc3ccc([C@@H](NC(=O)Nc4cc(C(F)(F)F)cc(C(F)(F)F)c4)C(=O)Nc4ccc(F)cc4F)cc3)nn1)c1nnc(C)n1-2 [NZ-147, (R)-2-(3-(3,5-bis(trifluoromethyl)phenyl)ureido)-2-(4-((1-(1-((S)-4-(4-chlorophenyl)-2,3,9-trimethyl-6H-thieno[3,2-f][1,2,4]triazolo[4,3-a][1,4]diazepin-6-yl)-2-oxo-6,9, 12-trioxa-3-azatetradecan-14-yl)-1H-1,2,3-triazol-4-yl)methoxy)phenyl)-N-(2,4-difluorophenyl) acetamide]
impact on c-MYC controlled genes vs (+)-JQ1 (c-MYC controlled genes): significantly more profound impact | levels of c-MYC (c-MYC): reduced | percentage of live cells (A549 cells): dose-dependent decrease in the percentage of live cells
